In the data set the test system is CCRIS mutagenicity, Ames/micronucleus/aberration tests. In words: CCRIS mutagenicity studies. The text has this:
The CCRIS database contains chemical records with carcinogenicity, mutagenicity, tumor promotion, and tumor inhibition test results. It was developed by the National Cancer Institute (NCI). Data are derived from studies cited in primary journals, current awareness tools, NCI reports, and other sources. Test results have been reviewed by experts in carcinogenesis and mutagenesis.
CCRIS provides historical information from the years 1985 - 2011. It is no longer updated.
This is an archive assay for CCRIS mutagenicity studies.

Setting [1] is: Test System: AMES SALMONELLA TYPHIMURIUM, Strain/Indicator: TA98, Metabolic Activation: NONE, Method: PREINCUBATION
Where [2] appears, read: Test System: AMES SALMONELLA TYPHIMURIUM, Strain/Indicator: TA100, Metabolic Activation: NONE, Method: PREINCUBATION
The mark [3] stands for this setting: Test System: AMES SALMONELLA TYPHIMURIUM, Strain/Indicator: TA1535, Metabolic Activation: NONE, Method: PREINCUBATION

SMILES strings stand for the structures. Activity calls are given as the source filed them. How the calls were made is not given here.

For `C/C=C/C=C/C`, the mutagenic call is “inactive; negative” under setting [1]; “inactive; negative” (Test System: AMES SALMONELLA TYPHIMURIUM, Strain/Indicator: TA98, Metabolic Activation: S-9, Method: PREINCUBATION); “inactive; negative” under setting [2]; “inactive; negative” (Test System: AMES SALMONELLA TYPHIMURIUM, Strain/Indicator: TA100, Metabolic Activation: S-9, Method: PREINCUBATION); “inactive; negative” under setting [3]; “inactive; negative” (Test System: AMES SALMONELLA TYPHIMURIUM, Strain/Indicator: TA1535, Metabolic Activation: S-9, Method: PREINCUBATION). Also, the mutagenic call is “inactive; negative” (Test System: E.COLI, Strain/Indicator: WP2UVRA/PKM101, Metabolic Activation: NONE, Method: PREINCUBATION) and “inactive; negative” (Test System: E.COLI, Strain/Indicator: WP2UVRA/PKM101, Metabolic Activation: S-9, Method: PREINCUBATION).
Turning to `O=[N+]([O-])c1ccc2ccc3c([N+](=O)[O-])cccc3c2c1`, the mutagenic call (Test System: AMES SALMONELLA TYPHIMURIUM, Strain/Indicator: TA98(1,8-DNP6), Metabolic Activation: NONE, Method: STANDARD PLATE) was “active; positive”; the mutagenic call (Test System: AMES SALMONELLA TYPHIMURIUM, Strain/Indicator: TA98(NR), Metabolic Activation: NONE, Method: STANDARD PLATE) is “active; positive”; the mutagenic call (Test System: AMES SALMONELLA TYPHIMURIUM, Strain/Indicator: TA98, Metabolic Activation: NONE, Method: STANDARD PLATE) was “active; positive”; the mutagenic call (Test System: AMES SALMONELLA TYPHIMURIUM, Strain/Indicator: TA100, Metabolic Activation: NONE, Method: STANDARD PLATE) was “active; positive”; the mutagenic call (Test System: AMES SALMONELLA TYPHIMURIUM, Strain/Indicator: YG1021, Metabolic Activation: NONE, Method: STANDARD PLATE) was “active; positive”; the mutagenic call (Test System: AMES SALMONELLA TYPHIMURIUM, Strain/Indicator: YG1024, Metabolic Activation: NONE, Method: STANDARD PLATE) is “active; positive”. Also, the mutagenic call is, setting by setting: (Test System: AMES SALMONELLA TYPHIMURIUM, Strain/Indicator: YG1026, Metabolic Activation: NONE, Method: STANDARD PLATE) “active; positive”; (Test System: AMES SALMONELLA TYPHIMURIUM, Strain/Indicator: YG1029, Metabolic Activation: NONE, Method: STANDARD PLATE) “active; positive”.
With `O.O.O.O.O.O.O=[N+]([O-])O.O=[N+]([O-])O.[Zn]`, the mutagenic call reads like this: under setting [1], “inactive; negative”; (Test System: AMES SALMONELLA TYPHIMURIUM, Strain/Indicator: TA98, Metabolic Activation: RAT LIVER S-9, PHENOBARBITAL AND BETA-NAPHTHOFLAVONE, Method: PREINCUBATION) “inactive; negative”; under setting [2], “inactive; negative”; (Test System: AMES SALMONELLA TYPHIMURIUM, Strain/Indicator: TA100, Metabolic Activation: RAT LIVER S-9, PHENOBARBITAL AND BETA-NAPHTHOFLAVONE, Method: PREINCUBATION) “inactive; negative”; under setting [3], “inactive; negative”; (Test System: AMES SALMONELLA TYPHIMURIUM, Strain/Indicator: TA1535, Metabolic Activation: RAT LIVER S-9, PHENOBARBITAL AND BETA-NAPHTHOFLAVONE, Method: PREINCUBATION) “inactive; negative”. Besides, the mutagenic call was “inactive; negative” (Test System: AMES SALMONELLA TYPHIMURIUM, Strain/Indicator: TA1537, Metabolic Activation: NONE, Method: PREINCUBATION); “inactive; negative” (Test System: AMES SALMONELLA TYPHIMURIUM, Strain/Indicator: TA1537, Metabolic Activation: RAT LIVER S-9, PHENOBARBITAL AND BETA-NAPHTHOFLAVONE, Method: PREINCUBATION); “inactive; negative” (Test System: AMES SALMONELLA TYPHIMURIUM, Strain/Indicator: TA1538, Metabolic Activation: NONE, Method: PREINCUBATION); “inactive; negative” (Test System: AMES SALMONELLA TYPHIMURIUM, Strain/Indicator: TA1538, Metabolic Activation: RAT LIVER S-9, PHENOBARBITAL AND BETA-NAPHTHOFLAVONE, Method: PREINCUBATION); “inactive; negative” (Test System: E.COLI, Strain/Indicator: WP2UVRA, Metabolic Activation: NONE, Method: PREINCUBATION); “inactive; negative” (Test System: E.COLI, Strain/Indicator: WP2UVRA, Metabolic Activation: RAT LIVER S-9, PHENOBARBITAL AND BETA-NAPHTHOFLAVONE, Method: PREINCUBATION).
For `CCC(C)Cl` (stereo not given), the mutagenic call is, setting by setting: (Test System: Mouse lymphoma, Strain/Indicator: L5178Y (tk+/tk-), Metabolic Activation: None, Method: Suspension/plate) “inactive; negative”; (Test System: Mouse lymphoma, Strain/Indicator: L5178Y (tk+/tk-), Metabolic Activation: Rat, Liver, S-9, Aroclor 1254, Method: Suspension/plate) “inactive; negative”.

(Values after PubChem BioAssay AID1259407 (Chemical Carcinogenesis Research Information System (CCRIS), 2018).)
